Tests used:
[1] = system: PC-12 cells; test: 14C-choline incorporation into phospholipids in PC-12 cells; assay type: cell-based; conditions: for Phosphatidylcholine (PC) synthesis (incorporation of 14C label into PC): 18 hr pre-incubation with 5 μM fatty acid, FIG. 1
Experimental: PC-12 cells were maintained in Dulbecco's modified Eagle's medium (DMEM)+10% fetal bovine serum (FBS). For experiments, cells were grown in quintuplicate collagen-coated 35 millimeter (mm) dishes. Cells were incubated for 18 hours (hr) in serum-free DMEM containing 28 μM choline+/−5 micromolar (μM) of DHA, oleic acid, or palmitic acid. Cells were then labeled for 2.5 hr with 0.5 microcurie (μCi)/ml ^14C-choline in serum-free DMEM containing 10-micromolar (μM) choline.
Cells were homogenized in 100 volumes of ice-cold deionized water using a tissue degrader (Polytron PT 10-35, Kinematica A G, Switzerland); 1 ml of aliquots were then mixed with 3 ml of chloroform+methanol mixture (2:1 v/v) and vortexed vigorously for 30 seconds. After cooling for 1 h on ice, the mixture was mixed sequentially with 3 ml of chloroform+methanol mixture (2:1 v/v) and 1 ml of ice-cold deionized water. The mixture was vortexed vigorously and allowed to stand overnight in the cold room (18 h). The organic (lower) and aqueous (upper) phases of the mixtures were separated by centrifugation (10 min at 4° C.; 1000 g). An aliquot (2 ml) of the upper phase was used for determination of CDP-Choline (see below), and 0.1-0.4 ml aliquots of the lower phase were dried under vacuum for phospholipid analysis. Residues of 0.1 ml aliquots of the lower phase were assayed for total phospholipid content by measuring phosphorus. Residues of 0.4 ml aliquots of the lower phase were reconstituted in 40 μl methanol and subjected to thin-layer chromatography using silica G plates (Adsorbosil Plus-1®, Alltech), and a system consisting of chloroform/ethanol/triethylamine/water (30:34:30:8) as the mobile phase. Phospholipid standards were used to identify the corresponding bands under UV light after the plates were sprayed with 0.1% diphenylhexatriene in petroleum ether. Bands for individual phospholipid classes (PC, PE, SM, PS and PI) were scraped off the plates and extracted into 1 ml of methanol; dried under vacuum; and assayed for phosphorus content. Total phosphorus was determined by comparison with standard curves by using KH2PO4 run with each assay. […] Absorbance was measured spectrophotometrically at 820 nm. Phospholipid mass was determined by multiplying the phosphorus content by 25.
In order to assess the effect of omega-3 fatty acids on phospholipid synthesis, PC-12 cells were incubated with ^14C-labeled choline, following an 18-hour pre-incubation with or without DHA. Incorporation of label into phospholipids was then measured. […]
To further characterize the stimulation of phospholipid synthesis by omega-3 fatty acids, PC-12 cells were pre-treated with different doses of DHA and exposed to labeled choline as described in Example 1, then incorporation of ^14C-label into phospholipids was measured. […]

[2] = system: SHSY-5Y cells; test: 14C-choline incorporation into phospholipids in SHSY-5Y cells; assay type: cell-based, human; conditions: for phospholipid synthesis: 18 hr with 10 μM fatty acid, FIG. 3A
Experimental: (§1) Cells were homogenized in 100 volumes of ice-cold deionized water using a tissue degrader (Polytron PT 10-35, Kinematica A G, Switzerland); 1 ml of aliquots were then mixed with 3 ml of chloroform+methanol mixture (2:1 v/v) and vortexed vigorously for 30 seconds. After cooling for 1 h on ice, the mixture was mixed sequentially with 3 ml of chloroform+methanol mixture (2:1 v/v) and 1 ml of ice-cold deionized water. The mixture was vortexed vigorously and allowed to stand overnight in the cold room (18 h). The organic (lower) and aqueous (upper) phases of the mixtures were separated by centrifugation (10 min at 4° C.; 1000 g). An aliquot (2 ml) of the upper phase was used for determination of CDP-Choline (see below), and 0.1-0.4 ml aliquots of the lower phase were dried under vacuum for phospholipid analysis. Residues of 0.1 ml aliquots of the lower phase were assayed for total phospholipid content by measuring phosphorus. Residues of 0.4 ml aliquots of the lower phase were reconstituted in 40 μl methanol and subjected to thin-layer chromatography using silica G plates (Adsorbosil Plus-1®, Alltech), and a system consisting of chloroform/ethanol/triethylamine/water (30:34:30:8) as the mobile phase. Phospholipid standards were used to identify the corresponding bands under UV light after the plates were sprayed with 0.1% diphenylhexatriene in petroleum ether. Bands for individual phospholipid classes (PC, PE, SM, PS and PI) were scraped off the plates and extracted into 1 ml of methanol; dried under vacuum; and assayed for phosphorus content. Total phosphorus was determined by comparison with standard curves by using KH2PO4 run with each assay. To each sample was added 0.5 ml of 4.5% HclO4/27% H2SO4 and tubes were heated at 180° C. for 3 h. After cooling to room temperature, 5 ml of the color reagent (a 10:1 dilution of solutions containing 2.5 mg/ml ammonium molybdate, 8.2 mg/ml sodium acetate and 100 mg/ml ascorbic acid respectively) was added and the tubes were incubated for 2 h, 37° C. Absorbance was measured spectrophotometrically at 820 nm. Phospholipid mass was determined by multiplying the phosphorus content by 25.
SHSY-5Y cells were grown to near confluency in DMEM+10% FBS in 35 mm dishes. Cells were incubated for 18 hr in serum-free DMEM+1% FBS containing 30 μM choline+/−10 μM of DHA, arachidonic acid, or palmitic acid. Cells were then labeled, and labeled phospholipids were quantified as described for Example 1.
DHA was dissolved in ethanol to a […] concentration and frozen in 10 microliter aliquots at −80° C. For each experiment, one aliquot was diluted in ethanol to 10 micromolar; the volume giving the desired final solution in incubation medium was mixed with an equal volume of BSA solution (1 gm/ml).

[3] = system: brain phospholipids; test: Brain phospholipid levels after UMP diet and/or PUFA gavage; assay type: in vivo, gerbil; conditions: for brain phospholipid levels: 3 weeks, summary of Table 6; for increase in brain total phospholipids over control: DHA 300 mg/kg/day gavage, UMP 0.5% of chow
Experimental: as §1
Control standard diet (Table 4) consisted of Teklad Global 16% protein rodent diet (Harlan Teklad, Madison, Wis.), which contained 0.1% choline chloride (CC), corresponding to a daily dose of 50 mg/kg/day. UMP was provided as 0.5% UMP.2Na^+ weight/weight, added to the control diet, also prepared by Harlan Teklad, corresponding to 240 mg/kg/day UMP. DHA was administered as 300 mg/kg/day in 200 microliter (mcL)/day 5% Arabic Gum solution, while groups not receiving DHA were administered vehicle (5% Arabic Gum) alone. DHA was provided by Nu-Chek Prep (Elysian, Minn.) and UMP by Numico (Wagenigen, NL).
Gerbils were anesthetized with ketamine and xylazine (80 and 10 mg/kg bwt, i.p.) and sacrificed by immersing the head into liquid nitrogen for 2 min, followed by decapitation. Brains were immediately and quickly (30 seconds) removed using a bone rongeur and stored at −80° C.
Frozen brain hemispheres were weighed and homogenized in 100 volumes of ice-cold deionized water using a tissue degrader (Polytron PT 10-35, Kinematica A G, Switzerland), then analyzed as described in Example 1.
Protein in whole brain homogenate sample was measured for using bicinchoninic acid reagent (Perkin Elmer, Norwalk, Conn., USA). DNA was measured by measuring 460 nm emission of samples on a fluorometer in the presence of bisbenzimidizole, a fluorescent dye known as Hoechst H 33258 (American Hoechst Corporation), which has an excitation maximum at 356 nm and an emission maximum of 458 when bound to DNA.
Adult gerbils were administered control standard diet (Table 4) with our without 0.5% UMP and/or 300 mg/kg/day DHA, EPA, or AA. Groups not receiving DHA were administered vehicle (5% Arabic Gum) alone.

[4] = system: brain CDP-choline; test: Brain CDP-choline and CDP-ethanolamine levels (HPLC); assay type: in vivo, gerbil; conditions: 28 days; for brain CDP-choline levels: FIG. 5A; for brain CDP-ethanolamine levels: FIG. 5B
Experimental: FIG. 5. Effects of DHA on brain CDP-choline levels (A) and CDP-ethanolamine levels (B). Groups of 8 gerbils received either a control or a UMP-containing diet, and, by gavage, DHA (in a vehicle of 5% gum Arabic solution) or 5% gum Arabic solution alone for 28 days. On the 29th day brains were harvested and assayed for CDP-choline. Data are presented as means±SEM. Statistical analysis was performed using one- or two-way ANOVA followed by Tukey test. a: P<0.05 when compared with the values for control diet plus vehicle group; b: P<0.05 when compared with values for UMP diet plus vehicle group.
Aliquots (2 ml) of the upper (aqueous) phase were dried under a vacuum, reconstituted, and injected into an HPLC. The dried samples were reconstituted in 100-200 μl water and were analyzed by HPLC on an anion exchange column (Alltech Hypersil APS-2, […], 250×4.6 mm). CDP-choline was eluted with a linear gradient of buffers A (H3PO4, 1.75 mM, pH 2.9) and B (NaH2PO2, 500 mM, pH 4.5) from 0 to 100% B over period of 30 min. With this system, CDP-choline was resolved from closely co-eluting substances such as UMP in an isocratic system over a period of 40 min. The retention time for CDP-choline was 9.5 min. The column was washed with buffer B at the end of each experiment and every several days to remove retained nucleotides. Individual nucleotide peaks were detected by UV absorption at 280 nm and were identified by comparison with the positions of authentic standards, as well as by the addition of nucleotide standards to samples.

Compound | Phosphatidylcholine (PC) synthesis (incorporation of 14C label into PC) [1] | phospholipid synthesis [2] | brain phospholipid levels ([3]; gerbils) | increase in brain total phospholipids over control ([3]; gerbils, 4 weeks) | increase in brain levels of PC ([3]; vs control, Table 5A) | increase in brain levels of PE ([3]; vs control, Table 5A) | increase in brain levels of PI ([3]; vs control, Table 5A) | brain CDP-choline levels [4] | brain CDP-ethanolamine levels [4] | further results
CCC=CCC=CCC=CCC=CCC=CCC=CCCC(=O)O [DHA, 4,7,10,13,16,19-docosahexaenoic acid] | significantly increased | not | increased | 12% | 22% | 20% | 52% | decreased | decreased | synthesis of phospholipids (incorporation of 14C-label) ([1]; different doses of DHA, dose-dependent, FIG. 2): increased; brain phospholipid, pmol phospholipid per milligrams (mg) protein ([3]; FIG. 4A, gerbils, 4 weeks, ANOVA vs control): statistically significant effect; increase in brain levels of sphingomyelin ([3]; vs control, Table 5A): 24%
CCC=CCC=CCC=CCC=CCC=CCCCC(=O)O [EPA, 5,8,11,14,17-eicosapentaenoic acid] |  |  | increased |  |  |  |  |  |  | 
CCCCCC=CCC=CCC=CCC=CCCCC(=O)O [arachidonic acid, 5,8,11,14-eicosatetraenoic acid] |  | enhanced | increased |  |  |  |  |  |  | synthesis of total phospholipids, PC, and phosphatidylethanolamine ([2]; range of dosages, dose-dependent, FIG. 3B): increased
CCCCCCCCCCCCCCCC(=O)O [palmitic acid, reference compound] | not | not |  |  |  |  |  |  |  | 
CCCCCCCC/C=C\CCCCCCCC(=O)O [oleic acid, reference compound] | not |  |  |  |  |  |  |  |  | 
O=c1ccn([C@@H]2O[C@H](COP(=O)(O)O)[C@@H](O)[C@H]2O)c(=O)[nH]1 [UMP, uridine monophosphate] |  |  |  | 5% | 13% | 29% | 48% | decreased | decreased | effects on brain phospholipids ([3]; After 1 week of treatment): no significant effects; PtdEtn ([3]; Table 5 part A, gerbil brain): 84 ± 8 nmol/mg prt; increases in all 5 of the phospholipids ([3]; Treatment for 3 weeks, Table 5B): smaller but still significant increases

From US10525071B2, “Compositions containing PUFA and methods of use thereof” (MASSACHUSETS INSTITUE OF TECHNOLOGY, priority 2005, dated 2020)
